{"source": "patent US12383619B2", "about": "“Use of glutamate modulating agents with immunotherapies to treat cancer” (Biohaven Therapeutics Ltd., priority 2016, dated 2025)", "origin": "cited, not measured here", "key": {"[1]": {"test_system": "advanced (unresectable or metastatic) melanoma", "conditions": "cited from earlier work; for median OS: 3 mg/kg monotherapy group"}, "[2]": {"test_system": "advanced melanoma", "conditions": "3 mg/kg every 3 weeks, cited from earlier work"}, "[3]": {"molecular_target": "T1, PD-1 (Homo sapiens, UniProt Q15116)", "T1 construct": "indicate that PD-1 occupancy appears to be dose-independent in this dose range; host or cells: endogenous receptor in dosed subjects", "T1 sequence (Q15116 25-288)": "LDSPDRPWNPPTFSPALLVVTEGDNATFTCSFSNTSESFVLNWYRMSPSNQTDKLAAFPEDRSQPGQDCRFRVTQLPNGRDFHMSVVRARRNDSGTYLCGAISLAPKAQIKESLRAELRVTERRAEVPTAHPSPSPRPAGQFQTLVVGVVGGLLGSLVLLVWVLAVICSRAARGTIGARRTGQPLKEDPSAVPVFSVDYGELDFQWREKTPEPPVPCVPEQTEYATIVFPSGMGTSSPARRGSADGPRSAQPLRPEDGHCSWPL", "conditions": "15 subjects, 0.3 mg/kg to 10 mg/kg, across all doses; cited from earlier work"}, "[4]": {"test_system": "advanced (unresectable or metastatic) melanoma", "conditions": "cited from earlier work"}, "[5]": {"conditions": "patients who required re-treatment, ipilimumab monotherapy group"}, "[6]": {"conditions": "nivolumab 3 mg/kg every 2 weeks vs dacarbazine"}}, "note": "Where two headings read alike, the source gives them in different places."}
{"substance": "Ipilimumab: fully human IgG1 monoclonal antibody that blocks the binding of CTLA-4 to its B7 ligands", "values": [{"measurement": "median OS", "setting": "[1]; patients with CR or PR", "value": "not reached"}, {"measurement": "median OS", "setting": "[1]; patients with PD", "value": 8, "unit": "months"}, {"measurement": "median OS", "setting": "[1]; patients with SD", "value": 22, "unit": "months"}, {"measurement": "OS at 1 year % (95% CI)", "setting": "[1]; 3 mg/kg monotherapy, n = 137", "value": "46% (37.0, 54.1)"}, {"measurement": "OS at 2 years % (95% CI)", "setting": "[1]; 3 mg/kg monotherapy, n = 137", "value": "24% (16.0, 31.5)"}, {"measurement": "Overall survival: Median Months", "setting": "[1]; 3 mg/kg monotherapy, n = 137", "value": 10, "unit": "months"}, {"measurement": "hazard ratio (HR) for comparison of OS", "setting": "[1]; ipilimumab monotherapy vs gp100", "value": 0.66}, {"measurement": "BORR", "setting": "[1]; [5]", "value": 38, "unit": "%"}, {"measurement": "disease control rate (DCR) (CR+PR+SD)", "setting": "[1]; [5]", "value": 75, "unit": "%"}, {"measurement": "Best overall response: ORR %", "setting": "[2]", "value": 12, "unit": "%"}, {"measurement": "Complete response %", "setting": "[2]", "value": 1, "unit": "%"}, {"measurement": "OS: % of patients with event", "setting": "[2]", "value": "(40%)"}, {"measurement": "OS: Median in months", "setting": "[2]", "value": "Not reached"}, {"measurement": "OS: Number of patients with event", "setting": "[2]", "value": 112}, {"measurement": "PFS: % of patients with event", "setting": "[2]", "value": "(68%)"}, {"measurement": "PFS: Median in months", "setting": "[2]", "value": 2.8, "unit": "months"}, {"measurement": "PFS: Number of patients with event", "setting": "[2]", "value": 188}, {"measurement": "Partial response %", "setting": "[2]", "value": 10, "unit": "%"}, {"measurement": "Response duration: % ongoing", "setting": "[2]", "value": 88, "unit": "%"}, {"measurement": "Response duration: Median in months", "setting": "[2]; patients with confirmed complete or partial response", "value": "Not reached"}]}
{"substance": "nivolumab", "values": [{"measurement": "mean occupancy rate (PD-1)", "setting": "[3]", "value": 85, "unit": "%"}, {"measurement": "mean plateau occupancy (PD-1)", "setting": "[3]", "value": 72, "unit": "%"}, {"measurement": "Complete response (CR) (number)", "setting": "[4]; 3 mg/kg every 2 weeks, n = 210", "value": 16}, {"measurement": "Objective response (number)", "setting": "[4]; 3 mg/kg every 2 weeks, n = 210", "value": 84}, {"measurement": "Overall survival: Events", "setting": "[4]; 3 mg/kg every 2 weeks, n = 210", "value": 50}, {"measurement": "Overall survival: Events, figure in parentheses", "setting": "[4]; 3 mg/kg every 2 weeks, n = 210", "value": "(23.8)"}, {"measurement": "Partial response (PR) (number)", "setting": "[4]; 3 mg/kg every 2 weeks, n = 210", "value": 68}, {"measurement": "Progression-free survival: Events", "setting": "[4]; 3 mg/kg every 2 weeks, n = 210", "value": 108}, {"measurement": "Progression-free survival: Events, figure in parentheses", "setting": "[4]; 3 mg/kg every 2 weeks, n = 210", "value": "(51.4)"}, {"measurement": "Stable disease (SD) (number)", "setting": "[4]; 3 mg/kg every 2 weeks, n = 210", "value": 35}, {"measurement": "Complete response (CR) (%)", "setting": "[4]; 3 mg/kg every 2 weeks", "value": "(7.6%)"}, {"measurement": "Median duration of response", "setting": "[4]; 3 mg/kg every 2 weeks", "value": "Not reached"}, {"measurement": "Median time to response", "setting": "[4]; 3 mg/kg every 2 weeks", "value": 2.1, "unit": "Months"}, {"measurement": "Objective response (%)", "setting": "[4]; 3 mg/kg every 2 weeks", "value": "(40.0%)"}, {"measurement": "Overall survival: Median", "setting": "[4]; 3 mg/kg every 2 weeks", "value": "Not reached"}, {"measurement": "Overall survival: Rate At 6 months", "setting": "[4]; 3 mg/kg every 2 weeks", "value": 84.1}, {"measurement": "Overall survival: Rate At 12 months", "setting": "[4]; 3 mg/kg every 2 weeks", "value": 72.9}, {"measurement": "Partial response (PR) (%)", "setting": "[4]; 3 mg/kg every 2 weeks", "value": "(32.4%)"}, {"measurement": "Progression-free survival: Median", "setting": "[4]; 3 mg/kg every 2 weeks", "value": 5.1}, {"measurement": "Progression-free survival: Rate At 6 months", "setting": "[4]; 3 mg/kg every 2 weeks", "value": 48.0}, {"measurement": "Progression-free survival: Rate At 12 months", "setting": "[4]; 3 mg/kg every 2 weeks", "value": 41.8}, {"measurement": "Stable disease (SD) (%)", "setting": "[4]; 3 mg/kg every 2 weeks", "value": "(16.7%)"}, {"measurement": "Objective response: Odds ratio", "setting": "[4]; [6]", "value": 4.06}, {"measurement": "Overall survival: Hazard ratio", "setting": "[4]; [6]", "value": 0.42}, {"measurement": "Progression-free survival: Hazard ratio", "setting": "[4]; [6]", "value": 0.43}]}
